Assay results published in publication PMC8162404, “Proteomimetic surface fragments distinguish targets by function” (Chemical Science, 2020).

Columns and labels:
[1] = molecular target: T1, S100A4 (Homo sapiens, UniProt P26447); experiment: Pull-down assay with immobilized protein and LSM libraries; format: binding; conditions: for Kd: H14 library, 1:1 binding assumed, read-out: Surface mapping KD (apparent); for Affinity class of probe (high, medium, low) in pull-down: H14 probes selected for validation
T1 construct: made in house; host or cells: Escherichia coli BL21(DE3)
Summary of the method: (§1)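 Buffers were HEPES pH 7.4 with 150 mM NaCl, plus 1 mM TCEP and 1 mM CaCl2 (50 mM HEPES) for S100A4 and S100B, 1 mM TCEP for Gal-1, and no additive for RecQ-WH. Immobilized protein at 64 µM was equilibrated 30 min with the LSM sublibrary, and unbound probes were measured by LC-MS.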

[2] = molecular target: T2, S100B (Homo sapiens, UniProt P04271); experiment: as above; format: binding; conditions: for Kd: H14 library, 1:1 binding assumed, read-out: Surface mapping KD (apparent); for Affinity class of probe (high, medium, low) in pull-down: H14 probes selected for validation
T2 construct: made in house; host or cells: Escherichia coli BL21(DE3)
T2 sequence (P04271 1-92): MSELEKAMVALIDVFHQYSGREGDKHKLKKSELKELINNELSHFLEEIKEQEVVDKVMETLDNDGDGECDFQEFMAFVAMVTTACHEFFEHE
Summary of the method: as §1

[3] = molecular target: T3, Gal-1 (Homo sapiens, UniProt P09382); experiment: as above; format: binding; conditions: H14 library; 1:1 binding assumed; read-out: Surface mapping KD (apparent)
T3 construct: made in house; host or cells: E. coli BL21(DE3)
Summary of the method: (§2)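 His-tagged protein immobilized on Co-NTA resin (64 µM) in 20 mM HEPES pH 7.4, 150 mM NaCl, equilibrated 30 min at room temperature with foldamer LSM sublibraries at equimolar total concentration. Unbound fractions quantified by HPLC-MS versus protein-free resin control; apparent KD assumes 1:1 binding.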

[4] = molecular target: T4, CaM (Bos taurus, UniProt P62157); experiment: Competition pull-down with native ligand TRPV1-Ct15; format: binding, bovine; conditions: H14 library; competitor peptide 200 µM; read-out: Surface mapping KD (apparent), competition
T4 construct: made in house; host or cells: E. coli BL21 (DE3)

[5] = molecular target: T1, S100A4; experiment: Competition pull-down with native ligand NMIIA (1893–1923); format: binding; conditions: H14 library; competitor peptide 200 µM; read-out: Surface mapping KD (apparent), competition
[6] = molecular target: T2, S100B; experiment: Competition pull-down with native ligand RSK1 (689–735); format: binding; conditions: H14 library; competitor peptide 200 µM; read-out: Surface mapping KD (apparent), competition
[7] = molecular target: T5, RecQ-WH (Escherichia coli, UniProt P15043); experiment: Pull-down assay with immobilized protein and LSM libraries; design: species or system E. coli; conditions: H14 library; 1:1 binding assumed; read-out: Surface mapping KD (apparent)
T5 construct: coding for residues 408– 523 of E. coli RecQ; made in house; host or cells: E. coli BL21(DE3)
Summary of the method: as §2

[8] = molecular target: T5, RecQ-WH; experiment: Competition pull-down with native ligand SSB-Ct8; format: binding, E. coli; conditions: H14 library; competitor peptide 200 µM; read-out: Surface mapping KD (apparent), competition
[9] = molecular target: T4, CaM; experiment: Pull-down assay with immobilized protein and LSM libraries; format: binding, bovine; conditions: H14 library; 1:2 stoichiometry assumed; read-out: Surface mapping KD (apparent)
Summary of the method: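 His-tagged protein immobilized on Co-NTA resin, equilibrated 30 min at room temperature with LSM sublibraries (64 members, […]), equimolar protein to total probe. CaM buffer: 20 mM HEPES pH 7.4, 150 mM NaCl, 5 mM CaCl2. Bound fractions from HPLC-MS loss of unbound probe versus protein-free resin control; Kd derived.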

[10] = molecular target: T3, Gal-1; experiment: Competition pull-down with lactose; format: binding; conditions: H14 library; lactose 10 mM; read-out: Surface mapping KD (apparent), competition
Summary of the method: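 His6-tagged proteins immobilized on Co-NTA resin at 64 µM final with 64-member LSM foldamer sublibraries (1 M each, as printed) in pH 7.4 HEPES/NaCl buffers (Ca2+/TCEP per target), 30 min RT; competitor peptides 200 µM final, lactose 10 mM for Gal-1. Bound fractions from LC-MS loss vs protein-free resin; KD assuming 1:1 binding.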

T3 sequence (P09382 whole entry): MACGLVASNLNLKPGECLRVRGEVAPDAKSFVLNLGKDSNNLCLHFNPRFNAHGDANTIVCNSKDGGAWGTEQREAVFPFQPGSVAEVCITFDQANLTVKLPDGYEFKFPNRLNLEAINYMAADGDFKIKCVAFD
T1 sequence (P26447 whole entry): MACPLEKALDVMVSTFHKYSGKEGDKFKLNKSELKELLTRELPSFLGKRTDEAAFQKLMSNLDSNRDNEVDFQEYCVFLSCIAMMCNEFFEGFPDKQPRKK
T5 sequence (P15043 408-523): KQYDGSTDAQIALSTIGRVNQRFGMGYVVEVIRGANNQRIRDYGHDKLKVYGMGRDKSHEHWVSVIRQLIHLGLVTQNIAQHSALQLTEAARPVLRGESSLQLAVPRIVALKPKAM

SMILES | Kd [1] | Kd [2] | Kd [3] | Kd [4] | Kd [5] | Kd [6] | Kd [7] | Kd [8] | Kd [9] | Kd [10] | Affinity class of probe (high, medium, low) in pull-down [1] | Affinity class of probe (high, medium, low) in pull-down [2]
CC[C@H](C)[C@@H](CC(=O)N[C@H]1CCCC[C@@H]1C(N)=O)NC(=O)[C@H]1CCCC[C@@H]1NC(=O)[C@H]1CCCC[C@@H]1NC(=O)C[C@H](Cc1ccccc1)NC(=O)[C@H]1CCCC[C@@H]1N [H14 FI] | 9 µM | 21 µM | 102 µM | 121 µM | 280 µM | 202 µM | 79 µM | 266 µM | 0.6 µM | 164 µM | – | –
CC(C)C[C@@H](CC(=O)N[C@H]1CCCC[C@@H]1C(N)=O)NC(=O)[C@H]1CCCC[C@@H]1NC(=O)[C@H]1CCCC[C@@H]1NC(=O)C[C@H](Cc1ccccc1)NC(=O)[C@H]1CCCC[C@@H]1N [H14 FL] | 9 µM | 21 µM | 102 µM | 121 µM | 280 µM | 202 µM | 79 µM | 266 µM | 0.6 µM | 164 µM | – | –
CC(C)[C@@H](CC(=O)N[C@H]1CCCC[C@@H]1C(N)=O)NC(=O)[C@H]1CCCC[C@@H]1NC(=O)[C@H]1CCCC[C@@H]1NC(=O)C[C@H](Cc1ccccc1)NC(=O)[C@H]1CCCC[C@@H]1N [H14 FV] | 12 µM | 44 µM | 199 µM | 141 µM | 376 µM | 253 µM | 129 µM | – | 1.2 µM | 323 µM | – | –
NC(=O)[C@H]1CCCC[C@@H]1NC(=O)C[C@H](Cc1c[nH]c2ccccc12)NC(=O)[C@H]1CCCC[C@@H]1NC(=O)[C@H]1CCCC[C@@H]1NC(=O)C[C@H](Cc1ccccc1)NC(=O)[C@H]1CCCC[C@@H]1N [H14 FW] | 24 µM | 27 µM | 81 µM | 118 µM | 440 µM | 177 µM | 63 µM | 153 µM | 0.7 µM | 122 µM | – | –
CC[C@H](C)[C@@H](CC(=O)N[C@H]1CCCC[C@@H]1C(=O)N[C@H]1CCCC[C@@H]1C(=O)N[C@H](CC(=O)N[C@H]1CCCC[C@@H]1C(N)=O)Cc1ccccc1)NC(=O)[C@H]1CCCC[C@@H]1N [H14 IF] | 2 µM | 9 µM | 33 µM | 102 µM | 162 µM | 64 µM | 186 µM | 439 µM | 9 µM | 53 µM | high | high
CC[C@H](C)[C@@H](CC(=O)N[C@H]1CCCC[C@@H]1C(N)=O)NC(=O)[C@H]1CCCC[C@@H]1NC(=O)[C@H]1CCCC[C@@H]1NC(=O)C[C@@H](NC(=O)[C@H]1CCCC[C@@H]1N)[C@@H](C)CC [H14 II] | 2 µM | 19 µM | 24 µM | 280 µM | 101 µM | 147 µM | 160 µM | 364 µM | 9 µM | 50 µM | – | –
CC[C@H](C)[C@@H](CC(=O)N[C@H]1CCCC[C@@H]1C(=O)N[C@H]1CCCC[C@@H]1C(=O)N[C@H](CC(=O)N[C@H]1CCCC[C@@H]1C(N)=O)CC(C)C)NC(=O)[C@H]1CCCC[C@@H]1N [H14 IL] | 2 µM | 19 µM | 24 µM | 276 µM | 101 µM | 147 µM | 206 µM | 266 µM | 9 µM | 50 µM | high | high
CC[C@H](C)[C@@H](CC(=O)N[C@H]1CCCC[C@@H]1C(=O)N[C@H]1CCCC[C@@H]1C(=O)N[C@@H](CCSC)CC(=O)N[C@H]1CCCC[C@@H]1C(N)=O)NC(=O)[C@H]1CCCC[C@@H]1N [H14 IM] | 3 µM | 47 µM | 238 µM | – | 217 µM | 163 µM | 340 µM | – | 11 µM | – | – | –
CC[C@H](C)[C@@H](CC(=O)N[C@H]1CCCC[C@@H]1C(=O)N[C@H]1CCCC[C@@H]1C(=O)N[C@H](CC(=O)N[C@H]1CCCC[C@@H]1C(N)=O)C(C)C)NC(=O)[C@H]1CCCC[C@@H]1N [H14 IV] | 3 µM | 43 µM | 57 µM | – | 187 µM | 178 µM | 366 µM | – | 3 µM | 114 µM | – | –
CC[C@H](C)[C@@H](CC(=O)N[C@H]1CCCC[C@@H]1C(=O)N[C@H]1CCCC[C@@H]1C(=O)N[C@H](CC(=O)N[C@H]1CCCC[C@@H]1C(N)=O)Cc1c[nH]c2ccccc12)NC(=O)[C@H]1CCCC[C@@H]1N [H14 IW] | 8 µM | 21 µM | 38 µM | 88 µM | 244 µM | 67 µM | 195 µM | 315 µM | 0.4 µM | 65 µM | – | –
CSCC[C@@H](CC(=O)N[C@H]1CCCC[C@@H]1C(N)=O)NC(=O)[C@H]1CCCC[C@@H]1NC(=O)[C@H]1CCCC[C@@H]1NC(=O)C[C@H](CC(C)C)NC(=O)[C@H]1CCCC[C@@H]1N [H14 LM] | 4 µM | 67 µM | 138 µM | 468 µM | 318 µM | 163 µM | 233 µM | – | 14 µM | 334 µM | – | –
CC(C)C[C@@H](CC(=O)N[C@H]1CCCC[C@@H]1C(=O)N[C@H]1CCCC[C@@H]1C(=O)N[C@H](CC(=O)N[C@H]1CCCC[C@@H]1C(N)=O)C(C)C)NC(=O)[C@H]1CCCC[C@@H]1N [H14 LV] | 5 µM | 56 µM | 68 µM | – | 192 µM | 213 µM | 177 µM | – | 3 µM | 128 µM | – | –
CC[C@H](C)[C@@H](CC(=O)N[C@H]1CCCC[C@@H]1C(N)=O)NC(=O)[C@H]1CCCC[C@@H]1NC(=O)[C@H]1CCCC[C@@H]1NC(=O)C[C@H](CCSC)NC(=O)[C@H]1CCCC[C@@H]1N [H14 MI] | 11 µM | 62 µM | 145 µM | 435 µM | 447 µM | 269 µM | 226 µM | – | 3 µM | 235 µM | – | –
CSCC[C@@H](CC(=O)N[C@H]1CCCC[C@@H]1C(=O)N[C@H]1CCCC[C@@H]1C(=O)N[C@H](CC(=O)N[C@H]1CCCC[C@@H]1C(N)=O)CC(C)C)NC(=O)[C@H]1CCCC[C@@H]1N [H14 ML] | 11 µM | 62 µM | 145 µM | 435 µM | 447 µM | 269 µM | 226 µM | – | 3 µM | 235 µM | – | –
CC(C)[C@@H](CC(=O)N[C@H]1CCCC[C@@H]1C(=O)N[C@H]1CCCC[C@@H]1C(=O)N[C@H](CC(=O)N[C@H]1CCCC[C@@H]1C(N)=O)Cc1ccccc1)NC(=O)[C@H]1CCCC[C@@H]1N [H14 VF] | 3 µM | 20 µM | 93 µM | 239 µM | 474 µM | 91 µM | 347 µM | – | 5 µM | 193 µM | – | –
CC[C@H](C)[C@@H](CC(=O)N[C@H]1CCCC[C@@H]1C(N)=O)NC(=O)[C@H]1CCCC[C@@H]1NC(=O)[C@H]1CCCC[C@@H]1NC(=O)C[C@@H](NC(=O)[C@H]1CCCC[C@@H]1N)C(C)C [H14 VI] | 3 µM | 43 µM | 105 µM | – | 246 µM | 181 µM | 366 µM | – | 13 µM | 293 µM | – | –
CC(C)C[C@@H](CC(=O)N[C@H]1CCCC[C@@H]1C(N)=O)NC(=O)[C@H]1CCCC[C@@H]1NC(=O)[C@H]1CCCC[C@@H]1NC(=O)C[C@@H](NC(=O)[C@H]1CCCC[C@@H]1N)C(C)C [H14 VL] | 3 µM | 43 µM | 66 µM | – | 246 µM | 180 µM | 366 µM | – | 13 µM | 220 µM | high | medium
